Data: PMC10384408, “Anticancer Tungstenocenes with a Diverse Set of (O,O–), (O,S–) and (O,N–) Chelates—A Detailed Biological Study Using an Improved Evaluation via 3D Spheroid Models” (Pharmaceutics, 2023)

Experiments:
[1] = tested on: SW480 (colon carcinoma) cells; test: MTT cytotoxicity assay, SW480 monolayer; assay type: cell-based, human; conditions: exposure time 96 h, mean ± SD
Summary of the method: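 Monolayer cells seeded at 1 × 10^3 (CH1/PA-1), 2 × 10^3 (SW480), 3 × 10^3 (A549) or 7 × 10^3 (IMR-90) per well, preincubated 24 h, then exposed to serially diluted drug for 96 h. Viability by MTT (4 h), absorbance 550 nm (690 nm reference); IC50 interpolated from concentration-effect curves relative to untreated controls, ≥3 independent experiments.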

[2] = tested on: IMR-90 human lung fibroblasts; test: MTT cytotoxicity assay, IMR-90 fibroblasts; assay type: cell-based; conditions: exposure time 96 h, mean ± SD
Description: (§1) CH1/PA-1 (ovarian teratocarcinoma), SW480 (colon carcinoma) and A549 (non-small cell lung cancer) cells were maintained as described in the reference. IMR-90 human fetal lung fibroblasts (from the European Collection of Authenticated Cell Cultures, Porton Down, Salisbury, UK) were cultured in Stable Cell^TM DMEM/F12 supplemented with 0.01 mg/mL human recombinant insulin (both purchased from Sigma-Aldrich) and 10% fetal bovine serum (FBS, BioWest, Nuaillé, France). Human colon carcinoma cell lines HCT116 and HT29 (both kindly provided by the Institute of Cancer Research, Department of Medicine I, Medical University of Vienna, Austria) were cultured in McCoy’s 5a medium supplemented with 4 mM L-glutamine (both purchased from Sigma-Aldrich) and 10% FBS. MCF-7 human breast adenocarcinoma cells (kindly provided by M. Ogris, Department of Pharmaceutical Sciences, University of Vienna, Austria) were maintained in DMEM (high glucose) supplemented with 4 mM L-glutamine, 0.1 mg/mL human insulin (all purchased from Sigma-Aldrich) and 10% FBS. All cell lines were grown as monolayers in 75 cm^2 culture flasks (CytoOne, Starlab, Hamburg, Germany) at 37 °C in a humidified atmosphere containing 5% CO2.
Exponentially growing cells were plated into 96-well microculture plates (CytoOne, tissue culture treated, Starlab, Hamburg, Germany) in densities of 1 × 10^3 CH1/PA-1, 2 × 10^3 SW480, 3 × 10^3 A549 and 7 × 10^3 IMR-90 cells per well (each in 100 µL). After a 24 h preincubation, drugs were added in serial dilution to give a final volume of 200 µL/well and exposed for 96 h. At the end of the exposure, the drug solutions were replaced by 100 µL RPMI 1640/MTT mixture (7:1 ratio). MTT (3-(4,5-dimethylthiazol-2-yl)-2,5-diphenyl-2H-tetrazolium bromide), (Acros Organics, Geel, Belgium) solution was prepared in phosphate-buffered saline (5 mg/mL) and mixed with RPMI1640 medium supplemented with 4 mM L-glutamine (both from Sigma-Aldrich) and 10% FBS. After 4 h incubation, the formazan crystals were solubilized in 150 µL of DMSO per well. Absorbance was measured at 550 nm (and at 690 nm as a reference) with a microplate reader (ELx808, BioTek, Winoosky, VT, USA) and Gen5^TM 3.08 software (BioTek). The 50% inhibitory concentrations (IC50) relative to untreated controls were interpolated from concentration-effect curves. At least three biologically and technically independent experiments were performed.

[3] = tested on: HCT116 cells; test: Resazurin assay, HCT116 2D monolayer; assay type: cell-based, human; conditions: 96 h
Description: as §1
(§2) For the resazurin assay in monolayer cultures, cells were seeded into 96-well microculture plates (CytoOne, tissue culture treated, Starlab, Hamburg, Germany) in densities of 2 × 10^3 HCT116, 2 × 10^3 HT29 and 4 × 10^3 MCF-7 cells per well (each in 100 µL). For tests in 3D cultures, spheroids were grown as described above. After 24 h (for monolayers) or 4 days (for spheroids) the test compounds in the appropriate medium were added in serial dilution to the plates to obtain a total volume of 200 µL/well. Wells without cells, containing medium and resazurin (Alfa Aesar, Thermo Fisher, Kandel, Germany) solution were used as blanks. After 96 h exposure 20 µL of the resazurin solution (440 µM) were added to each well, followed by a 4 h (2D) or 12 h (3D) incubation period. Resorufin fluorescence was quantified at 530 nm (and a reference wavelength of 620 nm) by using a microplate reader (Synergy HT, BioTek) with Gen5^TM 3.10 software (BioTek).

[4] = tested on: HCT116 multicellular tumor spheroids; test: Resazurin assay, HCT116 3D spheroids; assay type: cell-based, human; conditions: 96 h; for IC50: spheroids
Description: as §1
For growing multicellular tumor spheroids, 400 HCT116, 400 HT29 or 800 MCF-7 cells per well were plated into round-bottom ultra-low attachment 96-well plates (Corning, Glendale, AZ, USA) in the media described above and incubated at 37 °C for 96 h. Spheroids were treated with 10 µM of the two most cytotoxic compounds 3 and 4 for another 96 h. The diameters of the spheroids were measured with Cell^F software under a CKX41 Olympus microscope before treatment and in constant daily intervals over the 96 h treatment period. For statistical analysis the t-test with Welsh’s correction was implemented in GraphPad Prism software (Version 6.01).
as §2

[5] = tested on: HT29 cells; test: Resazurin assay, HT29 2D monolayer; assay type: cell-based, human; conditions: 96 h
Description: as §1, §2

[6] = tested on: HCT116 cells; test: Annexin V-FITC/PI apoptosis assay, HCT116; assay type: cell-based, human; conditions: HCT116, 24 h, 200 µM
[7] = tested on: HT29 cells; test: Annexin V-FITC/PI apoptosis assay, HT29; conditions: HT29, 24 h, 200 µM; for ∑apoptotic cells [%]: sum of early and late
[8] = tested on: MCF-7 cells; test: Annexin V-FITC/PI apoptosis assay, MCF-7; conditions: MCF-7, 24 h, 200 µM
[9] = tested on: HCT116, HT29 and MCF-7 cell lines; test: ROS detection (DCFH-DA assay); assay type: cell-based, human; conditions: 2, 20, 100 and 200 µM, 2 h
Description: Reactive oxygen species (ROS) generation was measured by means of the DCFH-DA assay. […] On the following day, cells were washed with 200 µL Hanks’ balanced salt solution (HBSS, Sigma-Aldrich, containing 1% FBS) and stained with 100 µL of 25 µM DCFH-DA (2′,7′-dichlorofluorescein diacetate, Sigma-Aldrich) in HBSS (containing 1% FBS) for 45 min at 37 °C in the dark. After the incubation period, cells were washed with 200 µL HBSS (1% FBS) and loaded with compounds at concentrations of 2 µM, 20 µM, 100 µM and 200 µM in 200 µL phenol-red-free MEM (1% FBS) in triplicates. As positive controls, cells were treated with 200 µM and 400 µM tert-butylhydroperoxide (Sigma-Aldrich). Wells containing only phenol-red-free medium with 1% FBS were used as blanks, and non-drug treated, cell containing wells as reference values. Fluorescence (excitation: 485/20 nm, emission: 516/20 nm) was recorded in 10 min intervals with the Synergy HT reader (BioTek) over 2 h.

| SMILES | IC50 [1] [µM] | IC50 [3] [µM] | IC50 [4] [µM] | IC50 [5] [µM] | early apoptotic cells [%] AV+ / PI- [6] [%] | late apoptotic cells [%] AV+ / PI+ [6] [%] | necrotic cells [%] AV- / PI+ [6] [%] | viable cells [%] AV- / PI- [6] [%] | early apoptotic cells [%] AV+ / PI- [7] [%] | late apoptotic cells [%] AV+ / PI+ [7] [%] | necrotic cells [%] AV- / PI+ [7] [%] | viable cells [%] AV- / PI- [7] [%] | ∑apoptotic cells [%] [7] [%] | early apoptotic cells [%] AV+ / PI- [8] [%] | late apoptotic cells [%] AV+ / PI+ [8] [%] | necrotic cells [%] AV- / PI+ [8] [%] | viable cells [%] AV- / PI- [8] [%] | other results |
| --- | --- | --- | --- | --- | --- | --- | --- | --- | --- | --- | --- | --- | --- | --- | --- | --- | --- | --- |
| Cc1occc(=S)c1[O-].F[P-](F)(F)(F)(F)F.[W+4].c1cc[cH-]c1.c1cc[cH-]c1 [Compound 2, Bis(η^5-cyclopentadienyl)[2-methyl-3-(oxo-κO)-4-(1H)-pyran-4-thionato-κS]tungsten(IV) hexafluorophosphate] | 36 ± 7 | 98 ± 12 | 158 ± 28 | 53 ± 9 | 7.2 ± 1.9 | 27.1 ± 17.6 | 2.2 ± 0.2 | 63.5 ± 18.6 | 3.9 ± 1.8 | 6.1 ± 1.0 | 3.3 ± 2.4 | 86.8 ± 2.4 | 10 | 7.4 ± 2.7 | 22.7 ± 4.5 | 14.9 ± 8.3 | 55.1 ± 10.1 | IC50 [2]: 107 ± 30 µM; ratio 3D/2D of IC50 values, HCT116 [4]: 1.6 |
| CCc1occc(=O)c1[O-].F[P-](F)(F)(F)(F)F.[W+4].c1cc[cH-]c1.c1cc[cH-]c1 [Compound 9, Bis(η^5-cyclopentadienyl)[2-ethyl-3-(oxo-κO)-4-(1H)-pyran-4-ato-κO] tungsten(IV) hexafluorophosphate] | 101 ± 15 | > 200 | > 200 | > 200 | 1.5 ± 0.8 | 2.3 ± 0.3 | 2.3 ± 0.4 | 93.9 ± 0.5 | 0.9 ± 0.6 | 3.9 ± 4.5 | 2.3 ± 1.3 | 92.9 ± 5.8 | 4.8 | 1.6 ± 1.0 | 8.4 ± 5.5 | 2.9 ± 1.8 | 87.2 ± 7.2 | intracellular ROS levels [9]: Pronounced elevation of ROS levels; ∑apoptotic cells [%] ([6]; sum of early and late): 3.8% |
